Test results from patent US20100298141A1, “SUBSTITUTED PYRIDINE N-OXIDE HERBICIDES” (E. I. DU PONT DE NEMOURS AND COMPANY, priority 2007, published 2010).

Columns and labels:
wheat = experiment: Test A pre-/postemergence greenhouse test; assay type: in vivo, Triticum aestivum; conditions: for Plant response rating, Wheat: 0 to 100 scale where 0 is no effect and 100 is complete control; for Wheat plant response rating: 0 to 100 scale
In short: (§1)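 Test compounds in non-phytotoxic solvent with surfactant were applied as a preemergence soil spray to seeded loam/sand pots and, concurrently, postemergence to plants at 2–10 cm, one- to two-leaf stage. About ten days in greenhouse, then injury visually rated against untreated controls.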

duck salad = experiment: Test C flooded paddy test; assay type: in vivo, Heteranthera limosa; conditions: Flood
In short: (§2)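 Under a constant 3 cm flood, test compounds went directly into the paddy water. Following 13 to 15 days of greenhouse growth, treated species and controls were compared by eye.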

velvetleaf = experiment: Test A pre-/postemergence greenhouse test; assay type: in vivo, Abutilon theophrasti; conditions: for Plant response rating, Velvetleaf: 0 to 100 scale where 0 is no effect and 100 is complete control; for Velvetleaf plant response rating: 0 to 100 scale
In short: as §1

giant foxtail = experiment: Test A pre-/postemergence greenhouse test; assay type: in vivo, Setaria faberi; conditions: for Plant response rating, Foxtail, Giant: 0 to 100 scale where 0 is no effect and 100 is complete control; for Foxtail, Giant plant response rating: 0 to 100 scale
In short: as §1

umbrella sedge = experiment: Test C flooded paddy test; assay type: in vivo, Cyperus difformis; conditions: Flood
In short: as §2

morningglory = experiment: Test A pre-/postemergence greenhouse test; assay type: in vivo, Ipomoea spp.; conditions: for Plant response rating, Morningglory: 0 to 100 scale where 0 is no effect and 100 is complete control; for Morningglory plant response rating: 0 to 100 scale
In short: as §1

barnyardgrass [1] = experiment: Test A pre-/postemergence greenhouse test; assay type: in vivo, Echinochloa crus-galli; conditions: for Plant response rating, Barnyardgrass: 0 to 100 scale where 0 is no effect and 100 is complete control; for Barnyardgrass plant response rating: 0 to 100 scale
In short: as §1

redroot pigweed = experiment: Test A pre-/postemergence greenhouse test; assay type: in vivo, Amaranthus retroflexus; conditions: for Plant response rating, Pigweed: 0 to 100 scale where 0 is no effect and 100 is complete control; for Pigweed plant response rating: 0 to 100 scale
In short: as §1

crabgrass = experiment: Test A pre-/postemergence greenhouse test; assay type: in vivo, Digitaria sanguinalis; conditions: for Plant response rating, Crabgrass, Large: 0 to 100 scale where 0 is no effect and 100 is complete control; for Crabgrass, Large plant response rating: 0 to 100 scale
In short: as §1

corn = experiment: Test A pre-/postemergence greenhouse test; assay type: in vivo, Zea mays; conditions: for Plant response rating, Corn: 0 to 100 scale where 0 is no effect and 100 is complete control; for Corn plant response rating: 0 to 100 scale
In short: as §1

barnyardgrass [2] = experiment: Test C flooded paddy test; assay type: in vivo, Echinochloa crus-galli; conditions: Flood
In short: as §2

rice = experiment: Test C flooded paddy test; assay type: in vivo, Oryza sativa; conditions: Flood
In short: as §2

[3] = Postemergence, 500 g ai/ha, 0 is no effect, 100 is complete control
[4] = Preemergence, 125 g ai/ha, 0 no effect, 100 complete control
[5] = Preemergence, 500 g ai/ha, 0 no effect, 100 complete control
[6] = 31 g ai/ha, scale 0 to 100 (0 no effect, 100 complete control)
[7] = 62 g ai/ha, scale 0 to 100 (0 no effect, 100 complete control)
[8] = 125 g ai/ha, scale 0 to 100, 0 no effect, 100 complete control, 13 to 15 days
[9] = 250 g ai/ha, scale 0 to 100, 0 no effect, 100 complete control, 13 to 15 days

Cc1ccc[n+]([O-])c1[S+]([O-])Cc1c(C(F)(F)F)nn(C)c1OC(F)F (centres unmarked) [Compound 112] was tested. Which “Plant response rating, Wheat” value (wheat; Postemergence, 125 g ai/ha) did it give?
Its value is 50.

And the “Wheat plant response rating” value (wheat; [3])?
The value was 60.

What about the “Wheat plant response rating” value (wheat; [4]) of the same compound?
The value was 40.

And the “Wheat plant response rating” value (wheat; [5])?
The value was 70.

And the “Plant response rating, Ducksalad” value (duck salad; [6])?
Its value is 0.

What about the “Plant response rating, Ducksalad” value (duck salad; [7]) of the same compound?
Its value is 0.

And the “Plant response rating, Ducksalad” value (duck salad; [8])?
Its value is 20.

And the “Plant response rating, Ducksalad” value (duck salad; [9])?
The value was 50.

And the “Plant response rating, Velvetleaf” value (velvetleaf; Postemergence, 125 g ai/ha)?
The value was 50.

And the “Velvetleaf plant response rating” value (velvetleaf; [3])?
The value was 70.

And the “Velvetleaf plant response rating” value (velvetleaf; [4])?
Its value is 10.

What about the “Velvetleaf plant response rating” value (velvetleaf; [5]) of the same compound?
Its value is 60.

What about the “Plant response rating, Foxtail, Giant” value (giant foxtail; Postemergence, 125 g ai/ha) of the same compound?
The value was 70.

What about the “Foxtail, Giant plant response rating” value (giant foxtail; [3]) of the same compound?
Its value is 80.

And the “Foxtail, Giant plant response rating” value (giant foxtail; [4])?
The value was 80.

And the “Foxtail, Giant plant response rating” value (giant foxtail; [5])?
The value was 100.

And the “Plant response rating, Sedge, Umbrella” value (umbrella sedge; [6])?
The value was 0.

And the “Plant response rating, Sedge, Umbrella” value (umbrella sedge; [7])?
Its value is 30.

And the “Plant response rating, Sedge, Umbrella” value (umbrella sedge; [8])?
Its value is 75.

And the “Plant response rating, Sedge, Umbrella” value (umbrella sedge; [9])?
The value was 95.

And the “Plant response rating, Morningglory” value (morningglory; Postemergence, 125 g ai/ha)?
The value was 70.

What about the “Morningglory plant response rating” value (morningglory; [3]) of the same compound?
The value was 90.

What about the “Morningglory plant response rating” value (morningglory; [4]) of the same compound?
The value was 60.

What about the “Morningglory plant response rating” value (morningglory; [5]) of the same compound?
Its value is 90.

What about the “Plant response rating, Barnyardgrass” value (barnyardgrass [1]; Postemergence, 125 g ai/ha) of the same compound?
The value was 70.

What about the “Barnyardgrass plant response rating” value (barnyardgrass [1]; [3]) of the same compound?
The value was 80.

And the “Barnyardgrass plant response rating” value (barnyardgrass [1]; [4])?
The value was 60.

And the “Barnyardgrass plant response rating” value (barnyardgrass [1]; [5])?
The value was 90.

What about the “Plant response rating, Pigweed” value (redroot pigweed; Postemergence, 125 g ai/ha) of the same compound?
Its value is 40.

What about the “Pigweed plant response rating” value (redroot pigweed; [3]) of the same compound?
Its value is 60.

What about the “Pigweed plant response rating” value (redroot pigweed; [4]) of the same compound?
The value was 10.

And the “Pigweed plant response rating” value (redroot pigweed; [5])?
Its value is 90.

And the “Plant response rating, Crabgrass, Large” value (crabgrass; Postemergence, 125 g ai/ha)?
Its value is 70.

And the “Crabgrass, Large plant response rating” value (crabgrass; [3])?
Its value is 80.

And the “Crabgrass, Large plant response rating” value (crabgrass; [4])?
The value was 70.

What about the “Crabgrass, Large plant response rating” value (crabgrass; [5]) of the same compound?
The value was 90.

What about the “Plant response rating, Corn” value (corn; Postemergence, 125 g ai/ha) of the same compound?
The value was 50.

What about the “Corn plant response rating” value (corn; [3]) of the same compound?
The value was 60.

What about the “Corn plant response rating” value (corn; [4]) of the same compound?
The value was 40.

What about the “Corn plant response rating” value (corn; [5]) of the same compound?
The value was 70.

And the “Plant response rating, Barnyardgrass” value (barnyardgrass [2]; [6])?
Its value is 0.

And the “Plant response rating, Barnyardgrass” value (barnyardgrass [2]; [7])?
The value was 0.

And the “Plant response rating, Barnyardgrass” value (barnyardgrass [2]; [8])?
The value was 15.

What about the “Plant response rating, Barnyardgrass” value (barnyardgrass [2]; [9]) of the same compound?
Its value is 45.

And the “Plant response rating, Rice” value (rice; [6])?
Its value is 0.

And the “Plant response rating, Rice” value (rice; [7])?
Its value is 0.

What about the “Plant response rating, Rice” value (rice; [8]) of the same compound?
Its value is 0.

What about the “Plant response rating, Rice” value (rice; [9]) of the same compound?
Its value is 15.

With Cc1ccc[n+]([O-])c1S(=O)(=O)Cc1c(C(F)(F)F)nn(C)c1OC(F)F [Compound 113] as the compound, how does the “Plant response rating, Wheat” value (wheat; Postemergence, 125 g ai/ha) read?
The value was 40.

And the “Wheat plant response rating” value (wheat; [3])?
The value was 60.

And the “Wheat plant response rating” value (wheat; [4])?
The value was 0.

And the “Wheat plant response rating” value (wheat; [5])?
Its value is 60.

And the “Plant response rating, Ducksalad” value (duck salad; [6])?
Its value is 0.

And the “Plant response rating, Ducksalad” value (duck salad; [7])?
The value was 0.

What about the “Plant response rating, Ducksalad” value (duck salad; [8]) of the same compound?
Its value is 0.

What about the “Plant response rating, Ducksalad” value (duck salad; [9]) of the same compound?
Its value is 0.

What about the “Plant response rating, Velvetleaf” value (velvetleaf; Postemergence, 125 g ai/ha) of the same compound?
Its value is 40.

And the “Velvetleaf plant response rating” value (velvetleaf; [3])?
Its value is 50.

And the “Velvetleaf plant response rating” value (velvetleaf; [4])?
Its value is 0.

What about the “Velvetleaf plant response rating” value (velvetleaf; [5]) of the same compound?
The value was 40.

And the “Plant response rating, Foxtail, Giant” value (giant foxtail; Postemergence, 125 g ai/ha)?
The value was 60.

And the “Foxtail, Giant plant response rating” value (giant foxtail; [3])?
Its value is 80.

And the “Foxtail, Giant plant response rating” value (giant foxtail; [4])?
Its value is 80.

What about the “Foxtail, Giant plant response rating” value (giant foxtail; [5]) of the same compound?
The value was 90.

And the “Plant response rating, Sedge, Umbrella” value (umbrella sedge; [6])?
Its value is 0.

What about the “Plant response rating, Sedge, Umbrella” value (umbrella sedge; [7]) of the same compound?
The value was 0.

And the “Plant response rating, Sedge, Umbrella” value (umbrella sedge; [8])?
The value was 0.

What about the “Plant response rating, Sedge, Umbrella” value (umbrella sedge; [9]) of the same compound?
The value was 0.

And the “Plant response rating, Morningglory” value (morningglory; Postemergence, 125 g ai/ha)?
The value was 30.

What about the “Morningglory plant response rating” value (morningglory; [3]) of the same compound?
Its value is 60.

What about the “Morningglory plant response rating” value (morningglory; [5]) of the same compound?
The value was 80.

And the “Plant response rating, Barnyardgrass” value (barnyardgrass [1]; Postemergence, 125 g ai/ha)?
The value was 70.

And the “Barnyardgrass plant response rating” value (barnyardgrass [1]; [3])?
Its value is 80.

What about the “Barnyardgrass plant response rating” value (barnyardgrass [1]; [4]) of the same compound?
The value was 70.

And the “Barnyardgrass plant response rating” value (barnyardgrass [1]; [5])?
Its value is 100.

What about the “Plant response rating, Pigweed” value (redroot pigweed; Postemergence, 125 g ai/ha) of the same compound?
The value was 10.

What about the “Pigweed plant response rating” value (redroot pigweed; [3]) of the same compound?
Its value is 50.

And the “Pigweed plant response rating” value (redroot pigweed; [4])?
Its value is 10.

What about the “Pigweed plant response rating” value (redroot pigweed; [5]) of the same compound?
The value was 100.

And the “Plant response rating, Crabgrass, Large” value (crabgrass; Postemergence, 125 g ai/ha)?
The value was 60.

And the “Crabgrass, Large plant response rating” value (crabgrass; [3])?
The value was 80.

And the “Crabgrass, Large plant response rating” value (crabgrass; [4])?
The value was 80.

What about the “Crabgrass, Large plant response rating” value (crabgrass; [5]) of the same compound?
Its value is 90.

What about the “Plant response rating, Corn” value (corn; Postemergence, 125 g ai/ha) of the same compound?
The value was 0.

And the “Corn plant response rating” value (corn; [3])?
Its value is 60.

And the “Corn plant response rating” value (corn; [4])?
Its value is 0.

What about the “Corn plant response rating” value (corn; [5]) of the same compound?
The value was 80.

What about the “Plant response rating, Barnyardgrass” value (barnyardgrass [2]; [6]) of the same compound?
Its value is 0.

And the “Plant response rating, Barnyardgrass” value (barnyardgrass [2]; [7])?
Its value is 0.

And the “Plant response rating, Barnyardgrass” value (barnyardgrass [2]; [8])?
Its value is 0.

What about the “Plant response rating, Barnyardgrass” value (barnyardgrass [2]; [9]) of the same compound?
The value was 0.

What about the “Plant response rating, Rice” value (rice; [6]) of the same compound?
The value was 0.

What about the “Plant response rating, Rice” value (rice; [7]) of the same compound?
Its value is 0.

What about the “Plant response rating, Rice” value (rice; [8]) of the same compound?
The value was 0.

What about the “Plant response rating, Rice” value (rice; [9]) of the same compound?
The value was 0.
